Measurements taken from article PMC10265666, “Lung SPLUNC1 Peptide Derivatives in the Lipid Membrane Headgroup Kill Gram-Negative Planktonic and Biofilm Bacteria” (Biomacromolecules, 2023).
Several values for one entry are separate records, joined by “and”; a condition that tells them apart may be missing. Equal values may be shown once.

Tests used:
[1] = tested on: Klebsiella pneumoniae biofilms; assay: Biofilm growth (crystal violet); assay type: cell-based
Protocol: Minimum inhibitory concentration (MIC, defined as the minimum AMP concentration to prevent bacterial growth) and biofilm data were obtained by UV–vis spectroscopy using a BioTek Epoch 2 microplate reader.
The planktonic samples in the wells were then drained by inversion of the plate. The plate was washed with PBS prior to staining with 125 μL of 0.5% Crystal Violet (in 20% ethanol) for 15 min. Excess stain was removed by washing twice with distilled water. The bacterial remnants on the walls of the wells were analyzed at λ = 620 nm to observe any adhered bacteria. The absorbance values as percent of control (no AMP) do show a tendency of bacterial adherence to the wells. In this work, we will refer to the adhered bacteria after incubation at 37 °C for 16 h as biofilms.

[2] = Circular dichroism secondary structure in G(−)IM ULVs; assay type: physicochemical; settings: 10 μM peptide, 15 mM PBS pH 7, 37 °C
Protocol: Unilamellar vesicles (ULVs) of ∼600 Å diameter were prepared using an Avanti extruder: 200 μL of 20 mg/ml G(−)IM lipid in 15 mM PBS was extruded 21 times through Nucleopore filters of size 500 Å using 0.2 mL Hamilton syringes in the Avanti extruder. The final concentration of G(−)IM lipid in the ULVs was determined gravimetrically to be 15 mg/ml. Concentrated ULVs were added to 3 mL of 10 μM peptide in 15 mM PBS at pH 7 to create lipid/peptide molar ratios between 0:1 and 70:1. The samples remained at room temperature for ∼16 h before the CD measurement. Data were collected in 3 mL quartz cuvettes using a Jasco 1500 CD spectrophotometer at 37 °C in the Center for Nucleic Acids Science and Technology at Carnegie Mellon University. The samples were scanned from 200 to 240 nm 20 times, and the ellipticity (ϵ) results were averaged. Temperature was controlled at 37 °C via a Peltier element and water circulation through the sample compartment. Nitrogen gas was used at a flow rate between 20 and 25 ft^3/h (CFH). The parameters for scanning were: speed 100 nm/min, step size 1.0 nm, response time 1 second, bandwidth 1 nm, and sensitivity of 20 mdeg. OriginPro 2019 (OriginLab, Northampton, MA) was used to carry out a linear least-squares fit of the smoothed ellipticity traces to four secondary structural motifs representing α-helix, β-sheet, β-turn, and random coil.[20] This analysis gives a percentage match of each of the secondary structural motifs to the total sample ellipticity. Data were finally converted to mean residue ellipticity, taking into account the peptide concentration (10 μMolar) and number of amino acids (N), using the equation: MRE = (10^4/N)ϵ deg cm^2/dmol.

[3] = Circular dichroism secondary structure in Euk33 ULVs; assay type: physicochemical; settings: 10 μM peptide, 15 mM PBS pH 7, 37 °C
[4] = tested on: eukaryotic cells vs bacteria; assay: Therapeutic index (eukaryotic cell kill concentration / bacterial kill concentration); assay type: cell-based
Protocol: But more important than cytotoxicity is the therapeutic index (TI), which is the concentration at which ≥90% of eukaryotic cells are killed divided by the concentration at which ≥90% of bacteria are killed. For A4-153, this TI value is an estimated ≈ 128 μM/16 μM ≈ 8. TI for A4-157 is an estimated 128 μM/24 μM ≈ 5, and the TI for A4-183 is an estimated 64 μM/20 μM ≈ 3.

[5] = G(−)IM/peptide molar ratio 10:1
[6] = G(−)IM/peptide molar ratio 15:1
[7] = G(−)IM/peptide molar ratio 20:1
[8] = G(−)IM/peptide molar ratio 30:1
[9] = G(−)IM/peptide molar ratio 50:1
[10] = G(−)IM/peptide molar ratio 70:1

## CC[C@H](C)[C@H](NC(=O)[C@@H](NC(=O)[C@H](CO)NC(=O)[C@H](CCCCN)NC(=O)[C@@H](NC(=O)[C@H](CCCCN)NC(=O)CNC(=O)[C@H](Cc1c[nH]c2ccccc12)NC(=O)[C@@H](NC(=O)CNC(=O)CNC(=O)[C@@H](NC(=O)[C@H](Cc1c[nH]c2ccccc12)NC(=O)CNC(=O)[C@H](CCCCN)NC(=O)[C@@H](NC(=O)[C@H](CCCCN)NC(=O)[C@H](CCCCN)NC(=O)[C@H](Cc1ccccc1)NC(=O)[C@H](Cc1ccccc1)NC(=O)[C@H](CCCCN)NC(=O)[C@H](CCCCN)NC(=O)[C@@H](N)CC(C)C)C(C)C)C(C)C)C(C)C)C(C)C)C(C)C)C(=O)N[C@@H](CCCCN)C(=O)O (stereo in doubt) [A4-153]
[1]; 25 K. pneumoniae substrains, 16 h at 37 °C, crystal violet, 620 nm
  prevention of biofilm formation: generally more efficient than the other peptides at preventing biofilm formation
[1]; out of 11 colistin-resistant substrains, at ∼16 μM
  number of colistin-resistant substrains in which the peptide was the most effective at inhibiting biofilm formation: eight
[1]; out of 13 colistin-susceptible substrains, at ∼16 μM
  number of colistin-susceptible substrains in which the peptide was the most effective at inhibiting biofilm formation: seven
[2]; G(−)IM/peptide molar ratio 0:1
  Random: 57.7%
  α-helix: 6.4%
  β-sheet: 34.2%
  β-turn: 1.7%
[2]; G(−)IM/peptide molar ratio 1:1
  Random: 51.7%
  α-helix: 11.9%
  β-sheet: 32.4%
  β-turn: 4.0%
[2]; G(−)IM/peptide molar ratio 5:1
  Random: 62.9%
  α-helix: 10.2%
  β-sheet: 26.9%
  β-turn: 0%
[2]; [5]
  Random: 62.5%
  α-helix: 14.8%
  β-sheet: 17.7%
  β-turn: 5.0%
[2]; [6]
  Random: 15.6%
  α-helix: 41.9%
  β-sheet: 41.2%
  β-turn: 1.3%
[2]; [7]
  Random: 0%
  α-helix: 78.3%
  β-sheet: 8.0%
  β-turn: 13.7%
[2]; [8]
  Random: 4.6%
  α-helix: 78.5%
  β-sheet: 10.2%
  β-turn: 6.7%
[2]; [9]
  Random: 0%
  α-helix: 77.4%
  β-sheet: 13.6%
  β-turn: 9.0%
[2]; [10]
  Random: 0%
  α-helix: 64.1%
  β-sheet: 15.1%
  β-turn: 20.8%
[3]; Euk33/peptide molar ratio 0:1
  Random: 57.7%
  α-helix: 6.4%
  β-sheet: 34.2%
  β-turn: 1.7%
[3]; Euk33/peptide molar ratio 5:1
  Random: 66.2%
  α-helix: 9.7%
  β-sheet: 24.1%
  β-turn: 0%
[3]; Euk33/peptide molar ratio 10:1
  Random: 64.2%
  α-helix: 12.2%
  β-sheet: 23.6%
  β-turn: 0%
[3]; Euk33/peptide molar ratio 20:1
  Random: 60.4%
  α-helix: 14.1%
  β-sheet: 25.5%
  β-turn: 0%
[3]; Euk33/peptide molar ratio 30:1
  Random: 57.5%
  α-helix: 16.2% and 16%
  β-sheet: 26.3%
  β-turn: 0%
[3]; Euk33/peptide molar ratio 70:1
  Random: 51.3%
  α-helix: 20.5%
  β-sheet: 28.2%
  β-turn: 0%
[4]; denominator of TI
  concentration at which ≥90% of bacteria are killed: 16 µM
[4]; numerator of TI
  concentration at which ≥90% of eukaryotic cells are killed (estimated): ≈ 128 μM
